Laboratory results as given in patent US20130052644A1, “Predictive Markers Useful in the Treatment of Fragile X Syndrome (FXS)” (priority 2010, published 2013).

Tests used:
Format in all cases: in vivo, human
[1] = tested on: patients having Fragile X Syndrome (FXS); assay: Clinical response versus placebo in clinical study (measure not given)
Excerpt: As used herein, “an mGluR5 responder” is an individual having FXS who is likely following therapeutic treatment with an mGluR5 antagonist to show improved behavioral symptoms as assessed using the Aberrant Behavior Checklist—Community Edition (ABC-C) measure of behavior (Bihm et al., Am. J. Ment Retard 96:209-211). The ABC-C measurement looks at various behaviors including stereotypic behavior, hyperactivity, inappropriate speech, and restricted interests. […] The behavioral symptoms may also be assessed by other methods, such as Clinical Global Impression (CGI) scale, Social Responsiveness Scale (SRS), or Repetitive Behavior Scale-Revised (RBS-R). Individuals showing an improvement according to these tests will also be determined to be an mGluR5 responder. […]
Among the 30 patients who completed the clinical study, 26 consented for pharmacogenetic/pharmacogenomic assessments. […] A total of 26 DNA and 24 RNA samples were successfully extracted and analyzed. […]
Genomic DNA was treated with bisulfite (Qiagen, Valencia, Calif.). […] A total of 26 patients and 4 normal controls were analyzed.
FMR1 mRNA expression was measured by Taqman real-time PCR. […]
The expression levels of the control genes, GAPDH and UBC, were used to adjust for inter-sample variability. […] A total of 24 patients and 9 normal controls were analyzed. […]

[2] = tested on: patients having Fragile X Syndrome (FXS); assay: Aberrant Behavior Checklist-Community Edition (ABC-C) scores in clinical study, by FMR1 methylation status / mRNA expression; conditions: for ABC-C improvement in response over placebo / ABC-C Subscale I (Irritability), treatment difference / ABC-C Subscale II (Lethargy), treatment difference / ABC-C Subscale III (Stereotype), treatment difference / ABC-C Subscale IV (Hyperactivity), treatment difference / ABC-C Subscale V (Inappropriate Speech), treatment difference / ABC-C Total of subscales, treatment difference: day 19; for ABC-C Subscale I (Irritability), treatment difference / ABC-C Subscale II (Lethargy), treatment difference / ABC-C Subscale III (Stereotype), treatment difference / ABC-C Subscale IV (Hyperactivity), treatment difference / ABC-C Subscale V (Inappropriate Speech), treatment difference / ABC-C Total of subscales, treatment difference: versus placebo, adjusted for baseline
Excerpt: (§1) As used herein, “an mGluR5 responder” is an individual having FXS who is likely following therapeutic treatment with an mGluR5 antagonist to show improved behavioral symptoms as assessed using the Aberrant Behavior Checklist—Community Edition (ABC-C) measure of behavior (Bihm et al., Am. J. Ment Retard 96:209-211). The ABC-C measurement looks at various behaviors including stereotypic behavior, hyperactivity, inappropriate speech, and restricted interests. […] The behavioral symptoms may also be assessed by other methods, such as Clinical Global Impression (CGI) scale, Social Responsiveness Scale (SRS), or Repetitive Behavior Scale-Revised (RBS-R). Individuals showing an improvement according to these tests will also be determined to be an mGluR5 responder.
(§2) The present examples were performed as a follow up to a clinical trial which investigated whether the mGluR5 antagonist (−)-(3aR,4S,7aR)-4-Hydroxy-4-m-tolylethynyl-octahydro-indole-1-carboxylic acid methyl ester could provide beneficial treatment to a subject having FXS. The present study was set up to identify if a subset of patients exist that respond to (−)-(3aR,4S,7aR)-4-Hydroxy-4-m-tolylethynyl-octahydro-indole-1-carboxylic acid methyl ester treatment. In an attempt to identify such a subset of patients who respond to (−)-(3aR,4S,7aR)-4-Hydroxy-4-m-tolylethynyl-octahydro-indole-1-carboxylic acid methyl ester treatment, a study was conducted to investigate the relationship between FMR1 methylation/mRNA expression and (−)-(3aR,4S,7aR)-4-Hydroxy-4-m-tolylethynyl-octahydro-indole-1-carboxylic acid methyl ester efficacy in the study.
(§3) Among the 30 patients who completed the clinical study, 26 consented for pharmacogenetic/pharmacogenomic assessments. Genomic DNA was extracted from whole blood according to the instructions from Gentra (Minneapolis, Minn.). Total RNA was extracted from whole blood according to the instructions from Qiagen (Valencia, Calif.). A total of 26 DNA and 24 RNA samples were successfully extracted and analyzed. In addition, normal control DNAs were purchased from Coriell Institute (Camden, N.J.).
(§4) Genomic DNA was treated with bisulfite (Qiagen, Valencia, Calif.). MSP was performed using the CpG WIZ Fragile X Amplification Kit from Chemicon (Temecula, Calif.) according to manufacture's instruction. A total of 26 patients and 4 normal controls were analyzed.
(§5) FMR1 mRNA expression was measured by Taqman real-time PCR. The primers and probe were designed by Applied Biosystems (Foster City, Calif.; fragile X mental retardation 1 Hs 00924544_ml, Glyceraldehyde-3-phosphate dehydrogenase Hs 99999905_ml; ubiquitin C Hs 00824723_ml)
(§6) The expression levels of the control genes, GAPDH and UBC, were used to adjust for inter-sample variability. The data is presented as normalized Ct (cycle threshold). A Ct value≧36 is considered to be the background of the assay. A total of 24 patients and 9 normal controls were analyzed.
(§7) Genomic DNA was treated with […] (Qiagen, Valencia, Calif.). The following primers were used to amplify the FMR1 promoter with 22 CpG sites: 5′-[…]-3′ (SEQ ID NO:10); and 5′-[…]-3′ (SEQ ID NO:11). The 196-bp FMR1 promoter was cloned using the TA cloning kit from Invitrogen (Carlsbad, Calif.) and 7-13 clones per patient were sequenced using ABI3730XL (Foster City, Calif.). More details can be found in the BMD report. A total of 26 patients and 4 normal controls were analyzed.

[3] = tested on: patients having Fragile X Syndrome (FXS); assay: Clinical Global Impression (CGI) scale in clinical study, by FMR1 methylation status / mRNA expression; conditions: for CGI-global improvement, treatment difference / CGI-efficacy index, treatment difference: versus placebo, adjusted for baseline; for CGI-global improvement, treatment difference: decrease = improvement; for CGI-efficacy index, treatment difference: increase = improvement
Excerpt: as §1, §2, §3, §4, §5, §6, §7

[4] = tested on: patients having Fragile X Syndrome (FXS); assay: as above; conditions: day 19; patients fully methylated (probe-based methylation assay, 12 patients analysed) and/or not expressing FMR1 mRNA; p<0.001
[5] = fully methylated patients after reclassification (MSP, bisulfite-sequencing, additional MSP), p<0.001
[6] = patients who did not express FMR1 mRNA (n = 7)
[7] = patients who expressed FMR1 mRNA (n = 17)
[8] = patients with full methylation (n = 8)
[9] = patients with partial methylation (n = 18)
[10] = reclassified: patients with full methylation (determined by MSP and sequencing) (n = 7)
[11] = reclassified: patients with partial methylation (determined by MSP and sequencing) (n = 18)
[12] = day 19, patients who did not express FMR1 mRNA (n = 7)
[13] = day 19, patients who expressed FMR1 mRNA (n = 17)
[14] = day 19, patients with full methylation (n = 8)
[15] = day 19, patients with partial methylation (n = 18)
[16] = day 19, reclassified: patients with full methylation (by MSP and sequencing) (n = 7)
[17] = day 19, reclassified: patients with partial methylation (by MSP and sequencing) (n = 18)

COC(=O)N1CC[C@@H]2[C@H]1CCC[C@@]2(O)C#Cc1cccc(C)c1 [(−)-(3aR,4S,7aR)-4-Hydroxy-4-m-tolylethynyl-octahydro-indole-1-carboxylic acid methyl ester]
Difference between compound and placebo ([1]; patients partially methylated (initial MSP) or expressing FMR1 mRNA): no significant differences
Difference between compound and placebo ([1]; patients partially methylated (probe-based methylation assay) or expressing FMR1 mRNA): no significant differences
ABC-C improvement in response over placebo ([2]; patients fully methylated (initial MSP) or not expressing FMR1 mRNA, p<0.001): significantly greater improvement
ABC-C improvement in response over placebo ([2]; patients fully methylated (probe-based methylation assay, 12 patients analysed) and/or not expressing FMR1 mRNA, p<0.001): significantly greater improvement
ABC-C response versus placebo [2, 5]: significantly higher than placebo
ABC-C Subscale I (Irritability), treatment difference [2, 6]: −3.69
ABC-C Subscale II (Lethargy), treatment difference [2, 6]: −6.71
ABC-C Subscale III (Stereotype), treatment difference [2, 6]: −3.03
ABC-C Subscale IV (Hyperactivity), treatment difference [2, 6]: −9.12
ABC-C Subscale V (Inappropriate Speech), treatment difference [2, 6]: −4.66
ABC-C Total of subscales, treatment difference [2, 6]: −32.19
ABC-C Subscale I (Irritability), treatment difference [2, 7]: −0.81
ABC-C Subscale II (Lethargy), treatment difference [2, 7]: 1.93
ABC-C Subscale III (Stereotype), treatment difference [2, 7]: 0.32
ABC-C Subscale IV (Hyperactivity), treatment difference [2, 7]: −0.16
ABC-C Subscale V (Inappropriate Speech), treatment difference [2, 7]: 1.09
ABC-C Total of subscales, treatment difference [2, 7]: 2.23
ABC-C Subscale I (Irritability), treatment difference [2, 8]: −4.33
ABC-C Subscale II (Lethargy), treatment difference [2, 8]: −6.55
ABC-C Subscale III (Stereotype), treatment difference [2, 8]: −3.96
ABC-C Subscale IV (Hyperactivity), treatment difference [2, 8]: −8.77
ABC-C Subscale V (Inappropriate Speech), treatment difference [2, 8]: −4.48
ABC-C Total of subscales, treatment difference [2, 8]: −30.85
ABC-C Subscale I (Irritability), treatment difference [2, 9]: −0.67
ABC-C Subscale II (Lethargy), treatment difference [2, 9]: 3.76
ABC-C Subscale III (Stereotype), treatment difference [2, 9]: 0.89
ABC-C Subscale IV (Hyperactivity), treatment difference [2, 9]: 0.42
ABC-C Subscale V (Inappropriate Speech), treatment difference [2, 9]: 1.09
ABC-C Total of subscales, treatment difference [2, 9]: 5.66
ABC-C Subscale I (Irritability), treatment difference [2, 10]: −2.66
ABC-C Subscale II (Lethargy), treatment difference [2, 10]: −5.53
ABC-C Subscale III (Stereotype), treatment difference [2, 10]: −5.06
ABC-C Subscale IV (Hyperactivity), treatment difference [2, 10]: −8.55
ABC-C Subscale V (Inappropriate Speech), treatment difference [2, 10]: −4.31
ABC-C Total of subscales, treatment difference [2, 10]: −27.82
ABC-C Subscale I (Irritability), treatment difference [2, 11]: −1.15
ABC-C Subscale II (Lethargy), treatment difference [2, 11]: 2.66
ABC-C Subscale III (Stereotype), treatment difference [2, 11]: 0.78
ABC-C Subscale IV (Hyperactivity), treatment difference [2, 11]: −0.21
ABC-C Subscale V (Inappropriate Speech), treatment difference [2, 11]: 0.81
ABC-C Total of subscales, treatment difference [2, 11]: 3.10
CGI-efficacy index improvement in response over placebo ([3]; day 19, patients fully methylated (initial MSP) or not expressing FMR1 mRNA, p<0.001): significantly greater improvement
CGI-efficacy index response versus placebo [3, 5]: significantly higher than placebo
CGI-global improvement, treatment difference [3, 12]: −2.02
CGI-efficacy index, treatment difference [3, 12]: 1.99
CGI-global improvement, treatment difference [3, 13]: 0.56
CGI-efficacy index, treatment difference [3, 13]: −0.47
CGI-global improvement, treatment difference [3, 14]: −1.94
CGI-efficacy index, treatment difference [3, 14]: 1.86
CGI-global improvement, treatment difference [3, 15]: 0.67
CGI-efficacy index, treatment difference [3, 15]: −0.58
CGI-global improvement, treatment difference [3, 16]: −1.78
CGI-efficacy index, treatment difference [3, 16]: 1.76
CGI-global improvement, treatment difference [3, 17]: 0.58
CGI-efficacy index, treatment difference [3, 17]: −0.43
CGI-efficacy index improvement in response over placebo [4]: significantly greater improvement
